What all share (assay): NCI anticancer screen, dose series, 48 h
Test [1] deals with HT29 colon.
Test [2] deals with HCC-2998 colon.
In test [3] the test system is SN12C renal.
In test [4] the test system is UACC-62 melanoma.
Test [5] relates to SNB-75 CNS.
The test system of test [6] is UO-31 renal.
In test [7] the test system is NCI-H460 lung.
In test [8] the test system is SF-268 CNS.
For test [9], the system named is DU-145 prostate.
In test [10] the test system is SK-OV-3 ovarian.

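Interpolation was linear, between the two tested concentrations surrounding the appropriate level; five concentrations were tested over 48 hours in 96-well plates. GI50 marks 50% less growth. TGI marks complete inhibition of growth.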 Some results are limits rather than exact numbers.

For the molecule `NC(=O)c1ncn(C2OC(CO)C(O)C2O)c1O` (stereo not given), the TGI in [1] was 46.5 µM; in [2], over 100 µM; in [3], over 100 µM; in test [4], over 100 µM; in [5] it was over 100 µM; in test [6] it was over 100 µM. Besides, the TGI in [7] and in test [8] was over 100 µM each time.
On to `Cc1[nH]c2cc([N+](=O)[O-])ccc2c1[N+](=O)[O-]`, for which the TGI was determined as 97 µM in test [1]; 52.7 µM in [2]; 95 µM in test [3]; 57.5 µM in test [5]; 36.2 µM in [6]; 70.3 µM in [7]. This molecule also registered a TGI in test [8] of over 100 µM.
With `NS(=O)(=O)c1ccc(N=Nc2c[nH]c(=O)c(O)c2)cc1`, the TGI in [1], in test [3], in [4], in [5], in [6] and in test [7] was over 100 µM throughout. In addition, the TGI in test [9], in test [10] and in [8] was over 100 µM in each case.
Consider `CN(C)N=Nc1ccc(S(N)(=O)=O)cc1`, for which the TGI in test [1], in test [2], in test [3], in test [4], in [5] and in [6] was over 100 µM in each case. The TGI in test [7], in test [10] and in test [8] was over 100 µM in each case.
In the case of `N#CC(/C(CCCC(=O)Nc1cccc([N+](=O)[O-])c1)=N\NC(=O)c1c(O)ccc2ccccc12)c1nc2ccccc2s1` (stereo not given), the TGI in test [1], in test [3], in test [5], in test [6], in test [7] and in [10] was over 100 µM throughout. The TGI in test [8] was over 100 µM.
As for `O=C(CCc1ccccc1)CC1OC(=O)C(Cl)=C1Cl` (stereo not given), the TGI in [1] was 58.2 µM; in [2] it was 32.6 µM; in test [3], 38.3 µM; in test [4], 31.7 µM; in test [5], over 100 µM; in test [6], 34 µM. The TGI was 96.2 µM in test [7], over 100 µM in test [10] and 79.9 µM in test [8].
With `CN1CCN(c2nc(N)c(Br)c(Cl)n2)CC1`, the TGI in test [2], in test [3], in [4], in test [5], in [6] and in [7] was over 100 µM each time. For the same molecule, the TGI in test [10] and in test [8] was over 100 µM in each case.
As for `COC(=O)[C@@]12C3=NO[C@]1(C(=O)OC)C(O[Si](C)(C)C(C)(C)C)[C@@H](OC(C)=O)[C@@H](OC(C)=O)[C@@H]2[C@@H](OCc1ccccc1)CC3` (stereo not given in full), the TGI in test [1] is over 100 µM; in [2] it was over 100 µM; in [3] it was over 100 µM; in test [4], over 100 µM; in test [5], over 73.7 µM; in [6] it was over 100 µM. Also, the TGI in [7], in test [10] and in [8] was over 100 µM throughout.
`O=C(C(=CN1CCN(C(=O)c2ccco2)C1=S)C(=O)c1ccccc1)c1ccccc1`: the GI50 in [1] is 16.9 µM; in test [3], 6.07 µM; in [4], 6.93 µM; in test [5], 27.4 µM; in [6], 8.71 µM; in [7] it was 2.35 µM. Further, the values for the GI50 in test [9] and in [10] were 12.4 µM and 41.8 µM, respectively. The TGI in test [1] is over 50 µM; in test [3] it was 14.4 µM; in test [4] it was 18.3 µM; in test [5], over 50 µM; in test [6], 18.7 µM; in test [7] it was 11.6 µM. In addition, the TGI in test [9] and in test [10] was over 50 µM throughout.
For `COc1ccc(C(=O)C(C(=O)C(=O)NCCCNC(=O)C(=O)C(C(=O)c2ccc(OC)cc2)c2ccc(OC)cc2)c2ccc(OC)cc2)cc1` (stereo not given), the TGI in test [1], in test [2], in test [4], in test [5], in test [6] and in test [7] was over 100 µM each time. The TGI in test [10] and in test [8] was over 100 µM each time.
With `CC1=C2C=CC(=O)C[C@@]2(C)CCC1`, the TGI in test [1], in [2], in test [3], in test [4], in [5] and in [6] was over 100 µM in each case. Further, the TGI in [7], in test [10] and in test [8] was over 100 µM in each case.
On to `N=C(CC(=O)Nc1ccccn1)c1ccccc1`, for which the TGI in test [1], in test [3], in [4], in test [5], in [6] and in test [7] was over 100 µM each time. Besides, the TGI in test [9], in test [10] and in test [8] was over 100 µM in each case.
For `CCOC(=O)C1C(=O)CC(=O)C2CCCCC21` (stereo not given), the TGI in test [3], in test [4], in test [5], in [6], in test [7] and in [10] was over 100 µM throughout. Besides, in test [8], the TGI was over 100 µM.
`CC(=O)[CH-]C(=O)c1ccccc1.CC(=O)[CH-]C(=O)c1ccccc1.CC(=O)[CH-]C(=O)c1ccccc1.[Ga+3]`: the GI50 in test [1] was 20.7 µM; in test [2] it was 13.9 µM; in test [3] it was 15 µM; in [4], 16.4 µM; in test [5], 20.3 µM; in [6] it was 26.7 µM. Further, the GI50 is 11.8 µM in [7], 20.1 µM in test [10] and 11.6 µM in test [8]. The TGI in test [1] was determined as 39.1 µM; in test [2], 29.9 µM; in test [3], 33.2 µM; in [4] it was 30 µM; in test [5], 69.3 µM; in test [6], 76.2 µM. The TGI was determined as 28.7 µM in [7], 38.2 µM in test [10] and 26.9 µM in [8].
On to `O=C(N/C(=C\c1ccc(/C=C(\NC(=O)c2ccccc2)c2nc3c(O)nc(S)nc3[nH]2)cc1)c1nc2c(O)nc(S)nc2[nH]1)c1ccccc1`, for which the TGI in test [1] is over 100 µM; in test [2], over 100 µM; in test [3], over 100 µM; in [4], over 100 µM; in test [5], 84.7 µM; in test [6] it was over 100 µM. For the same molecule, the TGI in test [7], in test [10] and in test [8] was over 100 µM each time.
In the case of `N#Cc1ccc(C2SCc3nc4ccccc4n32)cc1` (stereo not given), the TGI is over 100 µM in test [2]; over 100 µM in [3]; over 100 µM in test [4]; over 100 µM in [5]; 73.6 µM in [6]; over 100 µM in test [7]. The TGI in test [10] and in test [8] was over 100 µM throughout.
As for `CC(=O)C1C(=O)C(=O)N(CCN2C(=O)C(=O)C(C(C)=O)C2=O)C1=O` (stereo not given), the TGI in test [1], in [2], in [3], in test [4], in [5] and in test [6] was over 100 µM each time. For the same molecule, the TGI in test [7], in test [10] and in [8] was over 100 µM each time.
Turning to `COc1ccc2nc3ccccc3c(NCCCCN(CCCl)CCCl)c2c1`, the TGI in [1] is over 100 µM; in [2], 6.06 µM; in test [3], 3.13 µM; in test [4], 1.42 µM; in [5], 2.04 µM; in test [6] it was 2.29 µM. Moreover, the TGI turned out to be 0.69 µM in test [7] and 2.36 µM in [8].
In the case of `CC(=O)CC(=O)Nc1ccccc1C(F)(F)F`, the TGI in [2], in [3], in test [4], in test [5], in test [6] and in [7] was over 100 µM in each case. Moreover, the TGI in [10] and in test [8] was over 100 µM throughout.
As for `CCN(CC)C(=S)SS(C)(=O)=O`, the TGI in test [1] was 31 µM; in [3] it was 29.9 µM; in test [4], 30 µM; in test [5], over 100 µM; in [6], 37.3 µM; in test [10], over 100 µM.
For the molecule `CSc1nnc(C(C#N)C#N)nn1`, the TGI in [1], in test [2], in test [3], in test [4], in test [5] and in test [6] was over 100 µM each time. Moreover, the TGI in test [7], in test [10] and in test [8] was over 100 µM in each case.
Take `COC1/C(=C\C(C)=O)c2ccccc2N1C(C)=O` (stereo not given): the TGI in test [1], in test [2], in [3], in test [4], in [5] and in test [6] was over 100 µM each time. The TGI in [7] and in test [10] was over 100 µM each time.
`CCN(CC)c1ccc(C2N3CCCCC3[C@@H]3c4[nH]c5ccccc5c4CCN23)cc1` (stereo not given in full): the TGI was 36.3 µM in test [1]; 51.6 µM in test [3]; 36.6 µM in test [4]; 29.1 µM in [5]; over 100 µM in test [6]; 55.5 µM in test [7]. For the same molecule, the TGI is over 100 µM in [10] and 69 µM in test [8].
On to `O=C(Oc1c(Cl)cc(Cl)cc1Cl)c1ccccc1Nc1ccnc(C(F)(F)F)c1`, for which the GI50 is 4.59 µM in test [1]; 3.07 µM in test [3]; 1.74 µM in test [4]; 41 µM in [6]; 3.38 µM in test [7]; 3.92 µM in test [8]. The TGI in [1] was over 100 µM; in test [3], 14.5 µM; in test [4], 6.06 µM; in test [6], over 100 µM; in test [7], over 100 µM; in test [8], over 100 µM.
`COc1ccc(C(O)c2ccccn2)cc1` (stereo not given): the TGI in [1], in test [3], in [4], in test [5], in test [7] and in test [9] was over 100 µM each time. In addition, the TGI in test [10] and in [8] was over 100 µM throughout.
In the case of `Cc1cc(Br)ccc1N=Nc1c(C)nn(-c2ccccc2)c1-c1ccccc1`, the TGI in test [1], in test [3], in test [4], in test [5], in test [6] and in test [7] was over 100 µM in each case. Moreover, the TGI in test [10] and in test [8] was over 100 µM throughout.
For `Cc1ccc(-c2nc3sc(C)cn3c2/C=C2\C(=O)Nc3ccc(Cl)cc32)cc1`, the GI50 in test [1] was 20.3 µM; in test [2] it was 15.1 µM; in test [3], 15 µM; in [4] it was 13.3 µM; in [5] it was 3.1 µM; in [6], 28.1 µM. Also, the GI50 in test [7] is 15.7 µM; in test [10], 7.05 µM; in [8], 17.8 µM. In addition, the TGI in [1] is 41.4 µM; in test [2] it was 31.1 µM; in [3] it was 29.8 µM; in test [4], 27.7 µM; in [5] it was 8.44 µM; in test [6], over 100 µM. For the same molecule, the TGI in [7] is 31.9 µM; in test [10], 25.1 µM; in test [8] it was 35.5 µM.
As to `COc1cc(O)c(C(=O)/C=C/c2ccc(OC)c(OCc3ccccc3)c2)c(OC)c1`, the TGI is over 100 µM in test [1]; over 100 µM in [2]; over 100 µM in test [3]; 7.33 µM in test [4]; over 100 µM in test [5]; over 100 µM in [6]. The TGI in [7] and in test [10] was over 100 µM throughout.

The record behind these values is PubChem BioAssay (NCI).
